The source of these data is patent US20080305520A9, “Mechanosensitive ion channels and methods of use” (priority 2004, published 2008).

Assay [1] concerns [Ca^2+]i fluctuations in migrating PC3 cells. Put plainly: Fura-2 Ca2+ imaging of [Ca2+]i fluctuations in migrating PC3 cells. The format is cell-based, human. The following applies: for sustained and transient [Ca^2+]i oscillations: same concentrations that blocked/reduced MscCa activity and PC3 cell migration, 9 cells, 3 experiments. The procedure: Two distinct types of [Ca^2+]i fluctuations were observed; a sustained Ca^2+)1 that increased from the front of the cell to the rear and was maintained for the duration of the locomotion cycle (up to 3 hours) measured from tether formation to tether release; and a fast transient [Ca2+i wave that spread rapidly through out the cell and lasted <1 minute (the time interval between frames) with an average frequency of 6 waves in 30 minutes. Both sustained and transients [Ca2+]i fluctuations were associated with moving cells. All three anti-MscCa agents described above, abolished both forms of [Ca^2+]i oscillations at the same concentrations that blocked/reduced MscCa activity and PC3 cell migration (9 cells, 3 experiments). Again, whereas with Gd and GsmTx4 the block was reversible, there was no recovery after the anti-TRPCI Ab washout.
(§1) Time-lapse videomicroscopy and Ca 2-imaging were conducted as follows. Cell migration was monitored by time-lapse videomicroscopy using Nomarski optics with an Epifluorescent microscope (TE 200). The time-lapse images were acquired and saved at 5 minute intervals using Metafluor software. Calcium imaging assays were carried out on cells previously loaded with Fura-2 AM (5 tm for 30 minutes). Time-lapse fluorescence images were consecutively acquired at 340 and 380 wavelengths and transmission (DIC) at intervals of I minute using Metafluor. Data analysis was carried out using Metamorph (Version 6. 1) and Excel] 2000. Conversion of pixels to gm based on a calibrated slide to represent the cell trajectories in the field.
(§2) The day before transfection cells were seeded at 50-60% density on sterile coverslips in a 6 well plate in culture medium without antibiotic. Transfection of 100 nM of double stranded siRNA Cy3 labeled per well (Ambion #731 1 and negative control, Ambion, Austin, TX was carried using Lipofectamine 2000 (Invitrogen, Carlsbad, CA) according to the manufacturer's instructions for siRNA transfections. Cells were stored in the incubator after the addition of the complexes and 7% FCS medium without antibiotic was added after the first 6 hours of transfection. The next day the supernatant was removed and normal culture medium replaced. Cells were tested by patch clamp and videomicroscopy during the next 48-72 hours, using the patch clamp and videomicroscopy methods described above in examples 4 and 5. […] The foregoing detailed description and examples have been given for clarity of understanding only. No unnecessary limitations are to be understood therefrom. The invention is not limited to the exact details shown and described, for variations obvious to one skilled in the art will be included within the invention defined by the claims.

Another assay deals with MscCa. As to the kind of experiment: Pressure-clamp cell-attached patch recording of MscCa currents in Xenopus oocytes. The format is cell-based. The following applies: oocyte cell-attached patches; EGTA left out of pipette solution.
In another assay the test system is PC3 cells. As to the kind of experiment: PC3 cell migration by time-lapse videomicroscopy. The format is cell-based, human. Particulars: for PC3 cell migration: one hour intervals before, during and after exposure; for reversibility of migration block with washout: up to 1 hour. Here is the method:
The effect of the three anti-MscCa agents on PC3 cell migration was tested using time-lapse videomicroscopy to record the trajectory of the migrating prostate tumor cells. Selected video frames were prepared at 15 minute intervals, showing a cluster of 7 PC3 cells as they migrate out from the cluster. […] All three agents blocked cell migration.
as §1, §2

A further assay has as its system prostate tumor cell. The following applies: medium containing serum; Cancer Letters 145 (1999); cited from earlier work.
Assay [2] relates to fish epithelial keratocyte. Particulars: Lee et al., Nature 400 (1999), cited from earlier work.
Another assay concerns the target T1, MscCa in PC3 cells (Homo sapiens, UniProt P48995).
T1 construct: host or cells: PC3 human prostate tumor cells
Put plainly: Cell-attached patch-clamp recording of MscCa activity in PC3 cells. The assay is classed as cell-based. The procedure: PC3 cell lines were grown in RPM1 1640 medium with 25 mM Hepes and glutamine, supplemented with 7% fetal calf serum, I mM sodium pyruvate, 4.5 g/L glucose, penicillin G (10,000 U/ml) and streptomycin sulfate (10,000 tg/ml) at 37° C. in a humidified 95% 02-5% C02 atmosphere. For patch-lamp studies, cells were seeded at low density on sterile coverslips placed in 33 mm culture dishes and tested during the next 2 - 5 days. Patch clamp recording was conducted as follows. Standard cell-attached patch-clamp recording was used to record single channel currents. The pipettes were made from thin-walled borosilicate glass (World Precision Instruments, Stevenage, UK) with an outside tip diameter of -2 Wm. Immediately prior to patch clamping, a cover slip was removed from the culture dish, glued with dots of silcone to a 35 mm culture, and placed in a microscope stage holder. Cells were visualized with an IM35 Zeiss microscope with fluorescence and Normaski optics. A pressure-clamp (McBride, D.W., Jr. & Hamill, O. P., PflLigers Archiv. 421, 606-612 (1992)) was used to apply pressure and suction protocols to achieve the initial tight seal and stimulate MS channels. […] This voltage-dependent gating of the open channel is also a characteristic of the prototypical MscCa, native to the frog oocyte (Taglietti et al., J. Physiol., 407, 311 (1988)), identified as being formed by the transient receptor channel protein I (TRPCI). The current-voltage relationship of the prostate MscCa measured with a 100 mM K+, zero Ca^2+in the pipette solution indicates an inwardly rectifying single channel conductance (-70 pS chord conductance at -100 mV and 20 pS at 50 mV) (Fig. • SB) that is essentially identical to that of the oocyte MscCa indicating a common pore structure. […] In the “sustained mode” (SM), the channels remained open for the duration of stimulation (Fig. SC), while in the “transient mode” (TM) the channels closed rapidly (cO.5 s) (FIG. 5C). […]
In general terms: The patch-clamp technique gives a direct electrical read-out from membranes.

The next assay relates to prostate tumor cells. Particulars: cited from earlier work.
In assay [3] the test system is Ca^2+-activated K+channel. As to the kind of experiment: Delayed outward channel currents after MscCa activation, PC3 cell-attached patch. The format is cell-based, human. The following applies: 50 nM charybdotoxin in the pipette solution; 1 mM external Ca^2+. The procedure: PC3 cell lines were grown in RPM1 1640 medium with 25 mM Hepes and glutamine, supplemented with 7% fetal calf serum, I mM sodium pyruvate, 4.5 g/L glucose, penicillin G (10,000 U/ml) and streptomycin sulfate (10,000 tg/ml) at 37° C. in a humidified 95% 02-5% C02 atmosphere. For patch-lamp studies, cells were seeded at low density on sterile coverslips placed in 33 mm culture dishes and tested during the next 2 - 5 days. Patch clamp recording was conducted as follows. Standard cell-attached patch-clamp recording was used to record single channel currents. The pipettes were made from thin-walled borosilicate glass (World Precision Instruments, Stevenage, UK) with an outside tip diameter of -2 Wm. Immediately prior to patch clamping, a cover slip was removed from the culture dish, glued with dots of silcone to a 35 mm culture, and placed in a microscope stage holder. Cells were visualized with an IM35 Zeiss microscope with fluorescence and Normaski optics. […] The current-voltage relationship of the prostate MscCa measured with a 100 mM K+, zero Ca^2+in the pipette solution indicates an inwardly rectifying single channel conductance (-70 pS chord conductance at -100 mV and 20 pS at 50 mV) (Fig. • SB) that is essentially identical to that of the oocyte MscCa indicating a common pore structure. […]

“Also recorded” adds a separate entry of the source.

T1 sequence (P48995 whole entry): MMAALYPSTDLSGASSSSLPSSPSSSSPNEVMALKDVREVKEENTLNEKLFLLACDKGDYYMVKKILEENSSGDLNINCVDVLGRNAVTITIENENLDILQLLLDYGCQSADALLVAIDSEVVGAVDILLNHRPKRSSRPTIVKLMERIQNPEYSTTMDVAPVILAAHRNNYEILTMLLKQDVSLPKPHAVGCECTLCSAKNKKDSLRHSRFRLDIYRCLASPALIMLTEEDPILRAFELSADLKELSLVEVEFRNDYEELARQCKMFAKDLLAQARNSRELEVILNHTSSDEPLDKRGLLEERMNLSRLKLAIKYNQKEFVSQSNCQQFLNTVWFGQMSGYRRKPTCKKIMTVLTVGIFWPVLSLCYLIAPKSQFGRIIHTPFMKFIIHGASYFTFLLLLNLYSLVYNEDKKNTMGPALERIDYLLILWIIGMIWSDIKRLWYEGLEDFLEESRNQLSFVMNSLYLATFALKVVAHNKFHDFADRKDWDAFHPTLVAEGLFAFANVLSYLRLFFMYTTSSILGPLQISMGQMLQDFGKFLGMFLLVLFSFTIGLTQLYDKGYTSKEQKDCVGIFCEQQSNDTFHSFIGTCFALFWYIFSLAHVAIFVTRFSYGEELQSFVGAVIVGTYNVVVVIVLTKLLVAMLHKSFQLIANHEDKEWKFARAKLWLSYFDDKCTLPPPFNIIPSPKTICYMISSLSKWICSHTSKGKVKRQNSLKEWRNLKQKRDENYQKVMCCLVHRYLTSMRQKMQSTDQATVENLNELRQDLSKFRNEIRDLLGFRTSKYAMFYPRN

For the molecule `[Gd+3]` [Gd^3+, gadolinium ion], in assay [1], the “sustained and transient [Ca^2+]i oscillations” value is given as “abolished”; the “reversibility of block of [Ca^2+]i oscillations after washout” value is listed as “reversible”. The “block of native and TRPC1-expressed MscCa” value with MscCa is “equally effective in blocking”. Besides, in the assay on PC3 cells (Gd^3+), the PC3 cell migration result was “blocked”. In addition, the “reversibility of migration block with washout” value in the assay with PC3 cells was “reversible”. Also, in the assay with prostate tumor cell, the “prostate tumor cell motility” value was “enhanced rather than inhibited”. In assay [2], the “Ca^2+ transients” value is on record as “abolishes”. Also, in assay [2] (prevents rear detachment), the cell migration result is on record as “inhibiting”. The MscCa activity entry at MscCa in PC3 cells (Gd^3+ also included in the pipette-tip solution, 20 out of 20 patches) was “abolished”. For the same molecule, the “MscCa patch current (channel block)” value at MscCa in PC3 cells (Gd^3+ in back solution at 5 µM, -3 minutes after tight seal, pressure steps) is given as “block the channel”.

Regarding `NC1=N[C@H](O)[C@H]2[C@H]3O[C@]4(O)O[C@@H]([C@@H](O)[C@@]2(N1)[C@@H]4O)[C@]3(O)CO` [tetrodotoxin], the invasiveness entry with prostate tumor cells was “reduce invasiveness”.

As for “GCLEFWWKCNPNDDKCCRPKLKCSKLFKLCNFSSG [GsmTx-4]”, in assay [1], the “sustained and transient [Ca^2+]i oscillations” value is listed as “abolished”; the “reversibility of block of [Ca^2+]i oscillations after washout” value is given as “reversible”. Also, the PC3 cell migration entry in the assay on PC3 cells (GsMTx-4 3 μM) was “blocked”. Besides, the “reversibility of migration block with washout” value in the assay on PC3 cells is listed as “reversible”. Further, the MscCa activity entry in the assay with MscCa in PC3 cells (3 μM GsmTx-4 in pipette, SM or TM gating mode) was “blocked; also recorded: effective in blocking”.

For “charybdotoxin (QFTNVSCTTSKECWSVCQRLHNTSRGKCMNKKCRCYS)”, in assay [3], the “delayed activation of outward channel currents after MscCa inward currents” value was “absent”.
